In ChEMBL document CHEMBL1201862, “PubChem BioAssay data set” (2004):
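In this assay, cells in 96-well plates receive the compound at five concentrations for 48 hours. Endpoints are linearly interpolated between the surrounding concentrations. Abbreviation: GI50, concentration required for 50% inhibition of growth.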 The source made the active and inactive calls. Cut-off read from the data, not from the text of the source: active = GI50 up to about 1.1 µM and inactive = higher.

Assays:
Assay in all cases: NCI-60 cell line screen, 48 h
786-0 = tested on: 786-0
COLO 205 = tested on: COLO 205
EKVX = tested on: EKVX
HL-60 = tested on: HL-60
K562 = tested on: K562
KM12 = tested on: KM12
LOX IMVI = tested on: LOX IMVI
LXFL 529 = tested on: LXFL 529
NCI-H23 = tested on: NCI-H23
OVCAR-3 = tested on: OVCAR-3
SF-295 = tested on: SF-295
SK-MEL-5 = tested on: SK-MEL-5
SN12C = tested on: SN12C
SNB-19 = tested on: SNB-19
SNB-75 = tested on: SNB-75
UO-31 = tested on: UO-31
HOP-62 = tested on: HOP-62
DU-145 = tested on: DU-145
PC-3 = tested on: PC-3
RXF 393 = tested on: RXF 393

SMILES	GI50 (786-0)	GI50 (COLO 205)	GI50 (EKVX)	GI50 (HL-60)	GI50 (K562)	GI50 (KM12)	GI50 (LOX IMVI)	GI50 (LXFL 529)	GI50 (NCI-H23)	GI50 (OVCAR-3)	GI50 (SF-295)	GI50 (SK-MEL-5)	GI50 (SN12C)	GI50 (SNB-19)	GI50 (SNB-75)	GI50 (UO-31)	GI50 (HOP-62)	GI50 (DU-145)	GI50 (PC-3)	GI50 (RXF 393)
CCCCCCCCCCCCCCCC(=O)OCC1OC(n2cc(F)c(=O)[nH]c2=O)C(NC(=O)OCc2ccccc2)C(O)C1O (stereo not drawn)	18.7 µM (inactive)	17.4 µM (inactive)	22 µM (inactive)	20.2 µM (inactive)	14.5 µM (inactive)	20.8 µM (inactive)	17.1 µM (inactive)	16.7 µM (inactive)	18.5 µM (inactive)	16.1 µM (inactive)	16.9 µM (inactive)	18.2 µM (inactive)	19.9 µM (inactive)	16.8 µM (inactive)	19.8 µM (inactive)	19.5 µM (inactive)	–	–	–	–
O=C1C2Cc3ccccc3CN2C(=O)N1CCN1CCCC1 (stereo not drawn)	> 100 µM (inactive)	> 100 µM (inactive)	–	> 100 µM (inactive)	> 100 µM (inactive)	> 100 µM (inactive)	> 100 µM (inactive)	> 100 µM (inactive)	> 100 µM (inactive)	> 100 µM (inactive)	> 100 µM (inactive)	> 100 µM (inactive)	> 100 µM (inactive)	> 100 µM (inactive)	–	> 100 µM (inactive)	> 100 µM (inactive)	–	–	–
CN1/C(=N\c2ccccc2)S/C1=N/c1ccccc1	> 100 µM (inactive)	61 µM (inactive)	60.1 µM (inactive)	27.2 µM (inactive)	56.5 µM (inactive)	52.2 µM (inactive)	74.6 µM (inactive)	82.2 µM (inactive)	40 µM (inactive)	34.1 µM (inactive)	> 100 µM (inactive)	28.9 µM (inactive)	–	> 100 µM (inactive)	6.62 µM (inactive)	> 100 µM (inactive)	> 100 µM (inactive)	–	–	–
C=C1C2C[C@@H]3OC4CC5O[C@]6(CC5OC4C(C)C3OC(=O)CC3CC[C@@H]4OC5C7OC8C[C@](CCC9CC(=C)[C@H](CCC(C[C@H]1C)O2)O9)(OC7C4O3)O[C@@H]85)C[C@@H]1O[C@@]2(CC(C)[C@@H]3OC(CC(=O)CCO)C(O)C[C@@H]3O2)CC(C)[C@@H]1O6 (stereo partly drawn)	< 0.001 µM (active)	< 0.001 µM (active)	–	–	< 0.001 µM (active)	< 0.001 µM (active)	< 0.001 µM (active)	< 0.001 µM (active)	< 0.001 µM (active)	< 0.001 µM (active)	< 0.001 µM (active)	< 0.001 µM (active)	< 0.001 µM (active)	< 0.001 µM (active)	–	< 0.001 µM (active)	< 0.001 µM (active)	–	–	–
COc1cc2oc(-c3ccc(O)cc3)cc(=O)c2c(OC)c1OC	> 100 µM (inactive)	> 100 µM (inactive)	> 100 µM (inactive)	> 100 µM (inactive)	> 100 µM (inactive)	> 100 µM (inactive)	> 100 µM (inactive)	–	> 100 µM (inactive)	> 100 µM (inactive)	> 100 µM (inactive)	> 100 µM (inactive)	> 100 µM (inactive)	> 100 µM (inactive)	18.4 µM (inactive)	> 100 µM (inactive)	> 100 µM (inactive)	> 100 µM (inactive)	> 100 µM (inactive)	> 100 µM (inactive)
CSc1nc(C)cc(=O)n1C1OC(COC(C)=O)C(OC(C)=O)C(OC(C)=O)C1OC(C)=O (stereo not drawn)	> 100 µM (inactive)	> 100 µM (inactive)	> 100 µM (inactive)	> 100 µM (inactive)	> 100 µM (inactive)	> 100 µM (inactive)	> 100 µM (inactive)	> 100 µM (inactive)	> 100 µM (inactive)	> 100 µM (inactive)	> 100 µM (inactive)	> 100 µM (inactive)	> 100 µM (inactive)	> 100 µM (inactive)	61.5 µM (inactive)	> 100 µM (inactive)	> 10 µM (inactive)	–	–	–
O=C(/C=C/c1ccc(O)cc1)c1cc(-c2cc(CCC(=O)c3ccc(O)cc3O)ccc2O)c(O)cc1O	25.6 µM (inactive)	11.4 µM (inactive)	> 50 µM (inactive)	17.9 µM (inactive)	17.7 µM (inactive)	19.8 µM (inactive)	19.5 µM (inactive)	–	35.9 µM (inactive)	14.1 µM (inactive)	22.3 µM (inactive)	25.2 µM (inactive)	32.2 µM (inactive)	26.8 µM (inactive)	19.3 µM (inactive)	> 50 µM (inactive)	27.4 µM (inactive)	32.4 µM (inactive)	22.6 µM (inactive)	41.5 µM (inactive)
C=C[C@@]1(C)CC(=O)[C@]2(O)[C@@]3(C)[C@@H](O)CCC(C)(C)[C@@H]3[C@H](O)[C@@H](OC(C)=O)[C@@]2(C)O1	> 100 µM (inactive)	> 100 µM (inactive)	> 100 µM (inactive)	48.6 µM (inactive)	> 100 µM (inactive)	1.7 µM (inactive)	> 100 µM (inactive)	–	> 100 µM (inactive)	> 100 µM (inactive)	> 100 µM (inactive)	> 100 µM (inactive)	57.7 µM (inactive)	> 100 µM (inactive)	> 100 µM (inactive)	60.4 µM (inactive)	> 100 µM (inactive)	> 100 µM (inactive)	> 100 µM (inactive)	11.2 µM (inactive)
CC(=O)Nc1ccc2c3c(cc(O)c2c1)N(C(=O)CCCCC(=O)N1CC(CCl)c2c1cc(O)c1cc(NC(C)=O)ccc21)CC3CCl (stereo not drawn)	0.0528 µM (active)	0.102 µM (active)	2.38 µM (inactive)	< 0.01 µM (active)	0.284 µM (active)	0.505 µM (active)	0.0313 µM (active)	–	< 0.0161 µM (active)	0.209 µM (active)	0.151 µM (active)	0.129 µM (active)	0.154 µM (active)	0.0436 µM (active)	< 0.0395 µM (active)	3.53 µM (inactive)	0.177 µM (active)	< 0.01 µM (active)	0.526 µM (active)	0.153 µM (active)
CCCCCCc1cc2cc(C(=O)Nc3cccc(C(F)(F)F)c3)c(=N)oc2cc1O	1.37 µM (inactive)	6.64 µM (inactive)	2.94 µM (inactive)	1.44 µM (inactive)	0.543 µM (active)	2.84 µM (inactive)	1.26 µM (inactive)	–	0.185 µM (active)	2.07 µM (inactive)	2.9 µM (inactive)	1.13 µM (inactive)	1.33 µM (inactive)	2.39 µM (inactive)	0.646 µM (active)	3.14 µM (inactive)	1.9 µM (inactive)	1.37 µM (inactive)	3.34 µM (inactive)	0.49 µM (active)
CCOP(=O)(OCC)C(Nc1ccc(F)cc1)c1cccc([N+](=O)[O-])c1 (stereo not drawn)	> 10 µM (inactive)	70.5 µM (inactive)	90.4 µM (inactive)	41.3 µM (inactive)	38.9 µM (inactive)	94 µM (inactive)	> 100 µM (inactive)	–	> 100 µM (inactive)	> 100 µM (inactive)	> 100 µM (inactive)	83.9 µM (inactive)	> 100 µM (inactive)	> 100 µM (inactive)	> 100 µM (inactive)	40.6 µM (inactive)	> 100 µM (inactive)	> 100 µM (inactive)	67.5 µM (inactive)	54.3 µM (inactive)
NCCOCCOCC(=O)O	> 100 µM (inactive)	–	> 100 µM (inactive)	–	> 100 µM (inactive)	> 100 µM (inactive)	–	> 100 µM (inactive)	> 100 µM (inactive)	> 100 µM (inactive)	> 100 µM (inactive)	> 100 µM (inactive)	> 100 µM (inactive)	> 100 µM (inactive)	> 100 µM (inactive)	> 100 µM (inactive)	–	–	–	> 100 µM (inactive)
CCn1c2ccccc2c2ccc(C3C4C(=O)N(c5cccc6ccccc56)C(=O)C4ON3C(C(N)=O)c3ccccc3)cc21 (stereo not drawn)	21.2 µM (inactive)	10.1 µM (inactive)	12.9 µM (inactive)	17.7 µM (inactive)	14.8 µM (inactive)	9.95 µM (inactive)	13.2 µM (inactive)	–	24 µM (inactive)	13.7 µM (inactive)	> 25 µM (inactive)	14.2 µM (inactive)	16.7 µM (inactive)	> 25 µM (inactive)	> 25 µM (inactive)	> 25 µM (inactive)	> 25 µM (inactive)	14.8 µM (inactive)	14.2 µM (inactive)	9.89 µM (inactive)
Cc1cc(N(CCOS(C)(=O)=O)CCOS(C)(=O)=O)ccc1/C=N/c1ccc(-c2csc(-c3ccccc3)n2)c(Cl)c1	2.05 µM (inactive)	1.64 µM (inactive)	4.47 µM (inactive)	2.45 µM (inactive)	6.28 µM (inactive)	11.2 µM (inactive)	6.73 µM (inactive)	–	5.98 µM (inactive)	8.65 µM (inactive)	2.36 µM (inactive)	7.6 µM (inactive)	8.81 µM (inactive)	4.66 µM (inactive)	1.8 µM (inactive)	9.75 µM (inactive)	6.05 µM (inactive)	1.67 µM (inactive)	14.8 µM (inactive)	2.12 µM (inactive)
Cc1cc2cc3c(cc2c(-c2ccc([N+](=O)[O-])cc2)n1)OCO3	23.6 µM (inactive)	37.7 µM (inactive)	62.2 µM (inactive)	57.5 µM (inactive)	60.8 µM (inactive)	25.1 µM (inactive)	41.2 µM (inactive)	–	45 µM (inactive)	55.2 µM (inactive)	50 µM (inactive)	17.4 µM (inactive)	28.7 µM (inactive)	21.2 µM (inactive)	19.7 µM (inactive)	13.5 µM (inactive)	19 µM (inactive)	62.8 µM (inactive)	44.7 µM (inactive)	32.7 µM (inactive)
